Measured values: patent US20090215849A1, “High stability aqueous gels comprising metronidazole and methods for the preparation thereof” (GALDERMA S.A., priority 2005, published 2009)

Experiment: Solubility of metronidazole in water
Format: physicochemical
Settings: water/propylene glycol mixtures said to give higher solubilities (values not given)
From the text: Without wishing to be bound by any particular theory, it is possible that the stabilizing effect according to the invention is at least partly due to the fact that a mixture of water and propylene glycol allows a very good solubilization of metronidazole, in particular when the water and the propylene glycol are present in the abovementioned advantageous ranges, whereas a lower solubilization is obtained when the propylene glycol is introduced after the dissolution of the metronidazole in water, even when the propylene glycol is post-introduced in large quantities as in the method of U.S. Pat. No. 4,837,378.

**Q.** With Cc1ncc([N+](=O)[O-])n1CCO [Metronidazole, 1-(2-hydroxyethyl)-2-methyl-5-nitroimidazole] as the molecule, how does the solubility in water read?
**A.** The solubility in water was roughly 0.78%.
